# Assay results from US20240124396A1, “AMINO LIPID COMPOUND, PREPARATION METHOD THEREFOR, AND USE THEREOF” (SHENZHEN SHENXIN BIOTECHNOLOGY CO., LTD., priority 2021, published 2024).
# System: Ovalbumin mRNA (OVA mRNA)
# Test: Ovalbumin mRNA in vivo delivery and immunization performance of lipid nanoparticles (ELISA IgG titer)
# Parameters: species or system BALB/c mice
# Settings: LNP with OVA mRNA, 0.5 mg/kg subcutaneous injection Day 0 and Day 7, blood on the 21st day, FIG. 1 and FIG. 2
# Protocol: Evaluation of Ovalbumin mRNA In Vivo Delivery and Immunization Performance of Lipid Nanoparticles (Delivery Vector) Prepared from Amino Lipid Compounds • Preparation process: The amino lipid compound described in the present invention, DSPC, cholesterol, and PEG2000-DMG were mixed and dissolved in absolute ethanol in a molar ratio of 50:10:38.5:1.5. Ovalbumin mRNA (OVA mRNA) was dissolved in a sodium acetate solution (50 mM, pH=4.0). Two microinjection pumps were used, and the ratio of ethanol solution to sodium acetate solution (50 mM, pH=4.0) was controlled to be 1:3. A crude solution of lipid nanoparticles was prepared in a microflow channel chip, then dialyzed for 6 hours with 1×PBS at a controlled temperature of 4° C. by using a dialysis cassette (Fisher, MWCO 20,000), and filtered with a 0.22 μm microporous filter membrane before use. The mass ratio of the amino lipid compound to ovalbumin mRNA (OVA mRNA) was about 10:1. • Animal preparation: 6-week-old male BALB/c mice with body weights of about 20 g were selected, and fed in an SPF-grade feeding room. Animal experiments were strictly carried out according to the guidelines of the national health institution and the requirements of animal ethics. • In vivo delivery: 3 mice were randomly selected per group and injected with lipid nanoparticles at a dose of 0.5 mg/kg by subcutaneous injection (Day 0). After 7 days, the same amount was used for another boost (Day 7). Tail vein blood was taken on the 21st day for the serological analysis. DLin-MC3 was used as the control. • Enzyme-linked immunosorbent assay (ELISA): a flat-bottomed 96-well plate (Nunc) was pre-coated with a concentration of OVA protein of 0.5 μg protein per well in 50 mM carbonate buffer (pH 9.6), and was allowed to stay overnight at 4° C., and then blocked with 5% glycine. Anti-serums, proteins obtained from immune animals, were diluted from 10^2 to 10^6 with PBS-0.05% Tween (PBS-T) at pH 7.4, added to the wells and incubated at room temperature, and placed at 37° C. for 1 hour. Horseradish peroxidase (HRP) coupled goat anti-mouse IgG was used for labeling in PBS-T-1% BSA at a dilution rate of 1:10,000. After the addition of the HRP substrate, the optical density was determined at a wavelength, and the absorbance at 450 nm was measured in an ELISA microplate reader (Bio-Rad).
# It will be appreciated that modifications and variations are possible to those skilled in the art in light of the above teachings, and it is intended that the present invention cover all such modifications and variations as fall within the scope of the appended claims.
row,SMILES,IgG antibody titers compared with the DLin-MC3 control group
1,CCCCCCCCCCCCN1C(=O)C[C@H](C(=O)NCCN(C)C)[C@H]1CCCCCCCCCCC (racemic) [Compound N12A12C4D1],significantly superior
2,CCCCCCCCCCCCN1C(=O)C[C@H](C(=O)OCCCN(C)C)[C@H]1CCCCCCCCCCC (racemic) [Compound N12A12C4O2],comparable
3,CCCCC/C=C\C/C=C\CCCCCCC[C@@H]1[C@@H](C(=O)OCCN2CCCCC2)CC(=O)N1CCCCCCCCCCCC (racemic) [Compound N12A20C4O10],significantly superior
4,CCCCCCCCCCCCCCCCN1C(=O)CC[C@H](C(=O)OCCN2CCCCC2)[C@H]1CCCCCCCCC (racemic) [Compound N16A10C5O10],significantly superior

# System: Luciferase mRNA (Fluc mRNA)
# Test: Luciferase mRNA in vivo delivery performance of lipid nanoparticles prepared from amino lipid compounds
# Parameters: species or system BALB/c mice
# Settings: batch 1; LNP with Fluc mRNA, 0.5 mg/kg intramuscular injection, mice, total fluorescence intensity imaged 6 hours after dosing
# Protocol: Evaluation of Luciferase mRNA In Vivo Delivery Performance of Lipid Nanoparticles Prepared from Amino Lipid Compounds • Preparation process: The delivery vector in the present invention, DSPC, cholesterol, and PEG2000-DMG were mixed and dissolved in absolute ethanol in a molar ratio of 50:10:38.5:1.5. Luciferase mRNA (Fluc mRNA) was dissolved in a sodium acetate solution (50 mM, pH=4.0). Two microinjection pumps were used, and the ratio of ethanol solution to sodium acetate solution (50 mM, pH=4.0) was controlled to be 1:3. A crude solution of lipid nanoparticles was prepared in a microflow channel chip, then dialyzed for 6 hours with 1×PBS (phosphate buffer solution) at a controlled temperature of 4° C. by using a dialysis cassette (Fisher, MWCO 20,000), and filtered with a 0.22 μm microporous filter membrane before use. The mass ratio of the amino lipid compound to luciferase mRNA (Fluc mRNA) was about 10:1. • Animal preparation: 6-week-old male BALB/c mice with body weights of about 20 g were selected, and fed in an SPF-grade feeding room. Animal experiments were strictly carried out according to the guidelines of the national health institution and the requirements of animal ethics. • In vivo delivery: 3 mice were randomly selected per group and injected with lipid nanoparticles at a dose of 0.5 mg/kg by intramuscular injection. After 6 hours, 200 μL of 10 mg/mL potassium […] was injected into each mouse via the tail vein, and after 10 minutes, the mice were placed under an in vivo imaging system (IVIS-200, Xenogen), and the total fluorescence intensity of each mouse was observed and recorded by photographing.
# Table 1 provides the expression intensities of Fluc mRNA delivered by the intramuscular injection administration of the representative amino lipid compounds with DLin-MC3 as the control (two batches of tests in total).
row,SMILES,Fluorescence intensity
1,CCCCCCCCCCCCCCCCN1C(=O)CC[C@H](C(=O)OCCN2CCOCC2)[C@H]1CCCCCCCCCCC (racemic) [Compound 3],5.1E+06
2,CCCCCCCCCCCCCCCCN1C(=O)CC[C@H](C(=O)OCCCN2CCN(C)CC2)[C@H]1CCCCCCCCC (racemic) [Compound 4],2.8E+06
3,CCCCCCCCCCCCCCC[C@@H]1[C@@H](C(=O)OCCN2CCCCC2)CCC(=O)N1CCCCCCCCCCCCC (racemic) [Compound 6],3.1E+05
4,CCCCCCCCCCCCCCCCC[C@@H]1[C@@H](C(=O)OCC2CCN(C)CC2)CCC(=O)N1CCCCCCCCCCCC (racemic) [Compound 7],6.1E+05
5,CCCCCCCCCCCCCCCCN1C(=O)C[C@H](C(=O)NCCN2CCCCC2)[C@H]1CCCCCCCC (racemic) [Compound 9],6.1E+06
6,CCCCCCCCCCCCCCCCC[C@@H]1[C@@H](C(=O)NCCN2CCN(C)CC2)CC(=O)N1CCCCCC (racemic) [Compound 10],8.1E+05
7,CCCCCCCC/C=C\CCCCCCCCN1C(=O)C[C@H](C(=O)NCCCN(C)C)[C@H]1CCCCCCCCCCC (racemic) [Compound 11],2.1E+06
8,CCCCCCCC/C=C\CCCCCCC[C@@H]1[C@@H](C(=O)OCCN2CCCC2)CC(=O)N1CCCCCCCCCCCCCCCC (racemic) [Compound 15],2.8E+07
9,CCCCCCCC/C=C\CCCCCCC[C@@H]1[C@@H](C(=O)OCCN2CCCCC2)CC(=O)N1CCCCCCCCCCCC (racemic) [Compound 16],1.4E+07
10,CCCCC/C=C\C/C=C\CCCCCCC[C@@H]1[C@@H](C(=O)OCCCN(C)C)CC(=O)N1CCCCCCCCCCCCC (racemic) [Compound 19],2.1E+06
11,CCCCC/C=C\C/C=C\CCCCCCC[C@@H]1[C@@H](C(=O)OCCN2CCCC2)CC(=O)N1CCCCCCCCCCCCCCCC (racemic) [Compound 20],5.2E+06
12,CCCCCCCCCCCCN1C(=O)C[C@H](C(=O)NCCN(C)C)[C@H]1CCCCCCCCCCC (racemic) [Compound N12A12C4D1],2.9E+07
13,CCCCCCCCCCCCN1C(=O)C[C@H](C(=O)OCCCN(C)C)[C@H]1CCCCCCCCCCC (racemic) [Compound N12A12C4O2],2.8E+06
14,CCCCC/C=C\C/C=C\CCCCCCC[C@@H]1[C@@H](C(=O)OCCN2CCCCC2)CC(=O)N1CCCCCCCCCCCC (racemic) [Compound N12A20C4O10],2.7E+06
15,CCCCCCCCCCCCCCCCN1C(=O)CC[C@H](C(=O)OCCN2CCCCC2)[C@H]1CCCCCCCCC (racemic) [Compound N16A10C5O10],4.5E+06
16,"CCCCC/C=C\C/C=C\CCCCCCCCC(CCCCCCCC/C=C\C/C=C\CCCCC)OC(=O)CCCN(C)C [Dlin-MC3, reference compound]",7.7E+06

# Same assay, conditions: batch 2; LNP with Fluc mRNA, 0.5 mg/kg intramuscular injection, mice, total fluorescence intensity imaged 6 hours after dosing
row,SMILES,Fluorescence intensity
1,CCCCCCCC/C=C\CCCCCCCCN1C(=O)C[C@H](C(=O)OCCN2CCCCC2)[C@H]1CCCCCCCCC (racemic) [Lipid 1],8.8E+06
2,CCCCCCCC/C=C\CCCCCCCCN1C(=O)C[C@H](C(=O)OCCCN(C)C)[C@H]1CCCCCCCCCCCCCC (racemic) [Lipid 2],4.9E+06
3,CCCCCCCC/C=C\CCCCCCCCN1C(=O)C[C@H](C(=O)OCCN2CCCC2)[C@H]1CCCCCCCCCCCCCCCCC (racemic) [Lipid 3],2.9E+07
4,CCCCC/C=C\C/C=C\CCCCCCCCN1C(=O)C[C@H](C(=O)OCCN2CCCC2)[C@H]1CCCCCCCCCCCCCC (racemic) [Lipid 5],7.6E+06
5,CCCCC/C=C\C/C=C\CCCCCCCCN1C(=O)C[C@H](C(=O)OCCCN2CCN(C)CC2)[C@H]1CCCCCCCCCCCC (racemic) [Lipid 6],3.7E+06
6,CCCCCCCC/C=C\CCCCCCC[C@@H]1[C@@H](C(=O)OCCN2CCCC2)CC(=O)N1CCCCCCCCCCCCCCCC (racemic) [Lipid 7],4.8E+07
7,CCCCCCCC/C=C\CCCCCCC[C@@H]1[C@@H](C(=O)OCCN2CCCCC2)CC(=O)N1CCCCCCCCCCCC (racemic) [Lipid 8],2.3E+07
8,CCCCC/C=C\C/C=C\CCCCCCCC[C@@H]1[C@@H](C(=O)OCCN2CCCCC2)CC(=O)N1CCCCCCCCCCCC (racemic) [Lipid 9],4.2E+06
9,CCCCC/C=C\C/C=C\CCCCCCCC[C@@H]1[C@@H](C(=O)OCC2CCN(C)CC2)CC(=O)N1CCCCCCCCCCCCC (racemic) [Lipid 10],3.6E+06
10,"CCCCC/C=C\C/C=C\CCCCCCCCC(CCCCCCCC/C=C\C/C=C\CCCCC)OC(=O)CCCN(C)C [Dlin-MC3, reference compound]",6.9E+06
